Measurements reported in patent publication US8846698B2, “Pyrrolo[2,3-d]pyrimidine tropomysin-related kinase inhibitors” (Pfizer Limited, priority 2011, dated 2014).

How the values were obtained:
MDR1 = MDR1 (Homo sapiens (Human), UniProt P08183); assay: MDCK-MDR1 assay (in vitro brain penetration); assay type: in vitro ADME; settings: for Papp B→A / Papp A→B: human; for Papp B→A: MDCK-MDR1, MDCK-MDR1, B to A, read-out: MDCK MDR1 Papp BA; for Papp A→B / MDCK MDR1 Papp AB: MDCK-MDR1, A to B; for Papp A→B: read-out: MDCK MDR1 Papp AB; for MDCK MDR1 Papp BA: MDCK-MDR1, B to A
Excerpt: MDCK-MDR1: MDCK-MDR1 data were collected according to the method described in “Are MDCK Cells Transfected with the Human MDR1 Gene a Good Model of the Human Intestinal Mucosa?”
http://www.springerlink.com/content/qfhqlqbr4fnp3 khf/fulltext.pdf

TRKA [1] = biological target: T1, TRKA (Homo sapiens (Human), UniProt P04629); assay: Isolated TRK enzyme assay (HTRF KinEASE-TK), TRKA; assay type: biochemical
Target sequence in this assay (P04629 441-796): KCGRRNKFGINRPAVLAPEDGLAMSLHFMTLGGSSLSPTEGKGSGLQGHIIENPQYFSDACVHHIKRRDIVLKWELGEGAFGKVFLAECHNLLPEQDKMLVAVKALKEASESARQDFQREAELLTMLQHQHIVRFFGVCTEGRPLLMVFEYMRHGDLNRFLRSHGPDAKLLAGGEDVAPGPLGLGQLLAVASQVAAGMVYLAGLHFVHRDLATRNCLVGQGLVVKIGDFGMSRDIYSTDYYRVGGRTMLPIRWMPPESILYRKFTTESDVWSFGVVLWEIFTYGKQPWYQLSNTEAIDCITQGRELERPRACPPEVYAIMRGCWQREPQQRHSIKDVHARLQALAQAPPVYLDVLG

TRKB = TRKB (Homo sapiens (Human), UniProt Q16620); assay: cell-based; settings: TrkB cell potency, TRKB PathHunter cell line
Protocol: (§1) After the Detection Reagent addition, plates are covered and incubated at room temperature for 60 minutes. […] Test compound data are expressed as percentage inhibition defined by HPE and ZPE values for each plate. Percentage inhibition in the presence of test compound is plotted against compound concentration on a log scale to determine an IC50 from the resultant sigmoid curve. Cell Based Assays were carried out using Cell lines from DiscoveRx utilising their PathHunter technology and reagents in an antagonist assay:
(§2) The assays are based upon DiscoveRx's proprietary Enzyme Fragment Complementation (EFC) technology. In the case of the TRK cell lines, the enzyme acceptor (EA) protein is fused to a SH2 protein and the TRK receptor of interest has been tagged with a Prolink tag.
(§3) Upon neurotrophin binding, the TRK receptor becomes phosphorylated, and the tagged SH2 protein binds.
(§4) This means that the IC50 is a good measure of affinity and should be unaffected by concentration neurotrophin stimulant.
(§5) Cryopreserved PathHunter cells are used from either in-house produced batches or bulk batches bought directly from DiscoveRx. Cryopreserved cells are resuscitated, spun 1000 rpm for 4 min to remove freezing media, and resuspended in MEM+0.5% horse serum (both Invitrogen) to 5e^5 cells/ml. The cells are then plated using a Multidrop into Greiner white tissue culture treated plates at 20 ul/well and incubated for 24 h at 37° C., 5% CO2, high humidity. On the day of the assay, the cell plates are allowed to cool to room temperature for 30 min prior to the assay.
(§6) Plates containing 1 ul of serially diluted compound, standard and HPE/ZPE are diluted 1/66 in assay buffer (PBS minus Ca^2+, minus Mg^2+ with 0.05% pluronic F127) using a Wellmate. […] The plates are left at room temperature for a further 2 hours before addition of 10 ul of the DiscoveRx PathHunter detection reagent (made up by adding 1 part Galacton Star, 5 parts Emerald II and 19 parts Cell Assay Buffer as per the manufacturer's instructions).
(§7) After reagent addition, plates are covered and incubated at room temperature for 60 minutes. Luminescence signal is read using an Envision. Test compound data are expressed as percentage inhibition defined by HPE and ZPE values for each plate. Percentage inhibition in the presence of test compound is plotted against compound concentration on a log scale to determine an […] from the resultant sigmoid curve.

TRKA [2] = biological target: T1, TRKA; assay: Cell based DiscoveRx PathHunter antagonist assay, TRKA cell line; settings: read-out: TrkA cell potency
Protocol: as §1, §2, §3, §4, §5, §6, §7
Target sequence in this assay (P04629 33-796): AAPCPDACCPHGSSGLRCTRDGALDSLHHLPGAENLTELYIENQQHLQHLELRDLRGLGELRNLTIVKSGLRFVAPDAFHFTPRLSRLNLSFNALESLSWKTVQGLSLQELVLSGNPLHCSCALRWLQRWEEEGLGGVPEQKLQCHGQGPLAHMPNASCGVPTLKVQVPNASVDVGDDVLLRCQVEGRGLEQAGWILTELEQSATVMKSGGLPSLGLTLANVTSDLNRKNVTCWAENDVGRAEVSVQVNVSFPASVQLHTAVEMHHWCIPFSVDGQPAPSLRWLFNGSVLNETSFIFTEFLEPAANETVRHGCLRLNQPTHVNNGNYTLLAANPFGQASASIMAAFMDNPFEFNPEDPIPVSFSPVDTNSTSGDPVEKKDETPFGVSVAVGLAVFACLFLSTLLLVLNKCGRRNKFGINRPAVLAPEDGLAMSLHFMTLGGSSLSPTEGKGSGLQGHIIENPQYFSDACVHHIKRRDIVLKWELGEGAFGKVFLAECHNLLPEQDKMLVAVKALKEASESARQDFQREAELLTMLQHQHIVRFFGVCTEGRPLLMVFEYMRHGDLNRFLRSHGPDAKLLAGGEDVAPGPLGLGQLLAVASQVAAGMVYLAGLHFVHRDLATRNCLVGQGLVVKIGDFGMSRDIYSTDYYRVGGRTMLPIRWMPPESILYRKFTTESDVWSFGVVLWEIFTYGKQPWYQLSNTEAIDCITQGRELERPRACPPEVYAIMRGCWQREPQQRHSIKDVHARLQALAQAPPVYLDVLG

[3] = isolated TRKA enzyme, read-out: TrkA enzyme potency

TRKB, sequence (Q16620 32-822 limits assumed): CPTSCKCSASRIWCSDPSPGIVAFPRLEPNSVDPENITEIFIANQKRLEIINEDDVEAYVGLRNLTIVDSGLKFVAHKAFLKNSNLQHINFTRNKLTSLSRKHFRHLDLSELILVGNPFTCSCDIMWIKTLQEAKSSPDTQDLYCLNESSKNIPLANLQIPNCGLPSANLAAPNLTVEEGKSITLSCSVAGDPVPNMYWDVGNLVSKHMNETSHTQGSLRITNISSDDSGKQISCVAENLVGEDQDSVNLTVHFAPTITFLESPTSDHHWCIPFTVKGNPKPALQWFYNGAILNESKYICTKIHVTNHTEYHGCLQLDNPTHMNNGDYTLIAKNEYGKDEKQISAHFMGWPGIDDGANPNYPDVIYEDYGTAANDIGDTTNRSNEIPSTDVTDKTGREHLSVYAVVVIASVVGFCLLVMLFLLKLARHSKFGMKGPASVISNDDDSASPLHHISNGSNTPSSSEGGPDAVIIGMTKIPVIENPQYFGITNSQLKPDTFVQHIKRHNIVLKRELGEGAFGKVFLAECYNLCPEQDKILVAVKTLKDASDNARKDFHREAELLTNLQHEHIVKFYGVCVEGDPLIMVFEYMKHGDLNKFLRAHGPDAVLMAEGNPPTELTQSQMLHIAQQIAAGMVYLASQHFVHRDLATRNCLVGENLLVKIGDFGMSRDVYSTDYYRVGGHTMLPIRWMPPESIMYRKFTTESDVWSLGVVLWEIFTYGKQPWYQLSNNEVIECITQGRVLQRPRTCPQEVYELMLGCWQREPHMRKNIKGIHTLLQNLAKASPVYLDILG
MDR1, sequence (P08183 whole entry): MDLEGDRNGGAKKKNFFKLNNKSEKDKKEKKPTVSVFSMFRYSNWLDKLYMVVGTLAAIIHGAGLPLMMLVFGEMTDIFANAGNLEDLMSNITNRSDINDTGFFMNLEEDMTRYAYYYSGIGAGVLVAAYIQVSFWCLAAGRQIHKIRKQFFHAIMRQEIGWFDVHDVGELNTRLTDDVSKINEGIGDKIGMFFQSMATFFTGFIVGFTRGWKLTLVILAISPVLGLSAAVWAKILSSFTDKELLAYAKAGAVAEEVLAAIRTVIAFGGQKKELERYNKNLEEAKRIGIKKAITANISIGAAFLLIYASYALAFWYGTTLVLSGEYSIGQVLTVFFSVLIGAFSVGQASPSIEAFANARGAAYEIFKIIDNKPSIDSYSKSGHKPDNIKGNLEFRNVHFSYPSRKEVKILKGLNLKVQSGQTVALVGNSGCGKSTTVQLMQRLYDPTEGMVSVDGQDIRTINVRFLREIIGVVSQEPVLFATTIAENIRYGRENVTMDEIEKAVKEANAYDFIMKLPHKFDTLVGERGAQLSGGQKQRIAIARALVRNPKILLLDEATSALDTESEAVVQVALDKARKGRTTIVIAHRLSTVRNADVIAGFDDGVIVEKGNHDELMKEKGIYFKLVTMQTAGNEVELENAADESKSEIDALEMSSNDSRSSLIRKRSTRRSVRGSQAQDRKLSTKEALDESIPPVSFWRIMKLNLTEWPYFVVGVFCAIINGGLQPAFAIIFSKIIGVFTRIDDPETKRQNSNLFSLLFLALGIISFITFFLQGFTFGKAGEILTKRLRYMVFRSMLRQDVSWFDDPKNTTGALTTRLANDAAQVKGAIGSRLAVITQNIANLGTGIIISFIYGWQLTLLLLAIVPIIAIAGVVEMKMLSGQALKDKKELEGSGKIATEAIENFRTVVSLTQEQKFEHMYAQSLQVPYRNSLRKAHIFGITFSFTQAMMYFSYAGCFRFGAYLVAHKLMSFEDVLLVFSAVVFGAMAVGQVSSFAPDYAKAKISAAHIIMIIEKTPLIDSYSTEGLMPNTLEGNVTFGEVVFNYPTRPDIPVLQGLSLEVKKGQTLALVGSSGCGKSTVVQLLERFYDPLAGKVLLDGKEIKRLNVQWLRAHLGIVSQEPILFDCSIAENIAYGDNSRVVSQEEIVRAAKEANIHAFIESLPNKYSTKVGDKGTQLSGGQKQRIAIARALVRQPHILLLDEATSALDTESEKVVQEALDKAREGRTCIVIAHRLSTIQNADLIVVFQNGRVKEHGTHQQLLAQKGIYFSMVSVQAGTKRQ

Compound | Papp B→A (MDR1) [×10⁻⁶ cm/s] | Papp A→B (MDR1) [×10⁻⁶ cm/s] | IC50 (TRKA [1]; [3]) [nM] | IC50 (TRKB) [nM] | IC50 (TRKA [2]) [nM] | MDCK MDR1 Papp AB (MDR1) [×10⁻⁶ cm/s] | MDCK MDR1 Papp BA (MDR1) [×10⁻⁶ cm/s] | IC50 (TRKA [1]; read-out: Trka enzyme (IC50)) [nM]
CC(C)(CO)n1cc(C(=O)c2cncc(NC(=O)Cn3cc(C(F)(F)F)nn3)c2)c2cnc(N)nc21 [Example 54, N-(5-{[2-Amino-7-(2-hydroxy-1,1-dimethylethyl)-7H-pyrrolo[2,3-d]pyrimidin-5-yl]carbonyl}pyridin-3-yl)-2-[4-(trifluoromethyl)-1H-1,2,3-triazol-1-yl]acetamide] | 1.3 | < 1 | 6.7 | 174 | 368 | – | – | –
CC(CO)n1cc(C(=O)c2cncc(NC(=O)Cn3cc(C(F)(F)F)nn3)c2)c2cnc(N)nc21 (single isomer, unassigned) [Example 39, N-(5-{[2-amino-7-(2-hydroxy-1-methylethyl)-7H-pyrrolo[2,3-d]pyrimidin-5-yl]carbonyl}pyridin-3-yl)-2-[4-(trifluoromethyl)-1H-1,2,3-triazol-1-yl]acetamide] | < 1 | < 1 | 24 | 4710 | > 8660 | – | – | –
Cc1cc(C(F)(F)F)nn1CC(=O)Nc1cncc(C(=O)c2cn([C@H](C)CO)c3ncncc23)c1 [Example 17, N-[5-({7-[(1R)-2-Hydroxy-1-methylethyl]-7H-pyrrolo[2,3-d]pyrimidin-5-yl}carbonyl)pyridin-3-yl]-2-[5-methyl-3-(trifluoromethyl)-1H-pyrazol-1-yl]acetamide] | 13 | < 1 | 23 | 45 | 103 | – | – | –
C[C@H](CO)n1cc(C(=O)c2cncc(NC(=O)Cn3ccc(C(F)(F)F)n3)c2)c2cncnc21 [Example 22, N-[5-({7-[(1R)-2-hydroxy-1-methylethyl]-7H-pyrrolo[2,3-d]pyrimidin-5-yl}carbonyl)pyridin-3-yl]-2-[3-(trifluoromethyl)-1H-pyrazol-1-yl]acetamide] | 6.9 | < 1 | 25 | 190 | 596 | – | – | –
CC(C)(CO)n1cc(C(=O)c2cncc(NC(=O)Cn3cc(C4CC4)nn3)c2)c2cncnc21 [Example 31, 2-(4-cyclopropyl-1H-1,2,3-triazol-1-yl)-N-(5-{[7-(2-hydroxy-1,1-dimethylethyl)-7H-pyrrolo[2,3-d]pyrimidin-5-yl]carbonyl}pyridin-3-yl)acetamide] | 2.6 | < 1 | 18 | 198 | 401 | – | – | –
C[C@H](CO)n1cc(C(=O)c2cncc(NC(=O)Cn3cc(C(F)(F)F)nn3)c2)c2cncnc21 [Example 21, N-[5-({7-[(1R)-2-hydroxy-1-methylethyl]-7H-pyrrolo[2,3-d]pyrimidin-5-yl}carbonyl)pyridin-3-yl]-2-[4-(trifluoromethyl)-1H-1,2,3-triazol-1-yl]acetamide] | 1.3 | < 1 | 71 | 1770 | 5740 | – | – | –
CC(C)(C)n1cc(C(=O)c2cncc(NC(=O)Cn3ccc(C4CC4)n3)c2)c2cncnc21 [Example 3, N-{5-[(7-tert-butyl-7H-pyrrolo[2,3-d]pyrimidin-5-yl)carbonyl]pyridin-3-yl}-2-(3-cyclopropyl-1H-pyrazol-1-yl)acetamide] | 20 | 8.7 | 4.1 | 1.8 | 5.1 | – | – | –
CC(CO)n1cc(C(=O)c2cncc(NC(=O)Cc3ccc(F)cn3)c2)c2cnc(N)nc21 (single isomer, unassigned) [Example 40, N-(5-{[2-amino-7-(2-hydroxy-1-methylethyl)-7H-pyrrolo[2,3-d]pyrimidin-5-yl]carbonyl}pyridin-3-yl)-2-(5-fluoropyridin-2-yl)acetamide] | 2.4 | < 1 | 67 | 506 | 2580 | – | – | –
CC(CO)n1cc(C(=O)c2cncc(NC(=O)Cc3ccc(F)cn3)c2)c2cnc(N)nc21 (single isomer, unassigned) [Example 37, N-(5-{[2-amino-7-(2-hydroxy-1-methylethyl)-7H-pyrrolo[2,3-d]pyrimidin-5-yl]carbonyl}pyridin-3-yl)-2-(5-fluoropyridin-2-yl)acetamide] | – | – | 67 | 571 | 2250 | – | – | –
CC(CO)n1cc(C(=O)c2cncc(NC(=O)Cn3ccc(C(F)(F)F)n3)c2)c2cnc(N)nc21 (single isomer, unassigned) [Example 44, N-(5-{[2-amino-7-(2-hydroxy-1-methylethyl)-7H-pyrrolo[2,3-d]pyrimidin-5-yl]carbonyl}pyridin-3-yl)-2-[3-(trifluoromethyl)-1H-pyrazol-1-yl]acetamide] | – | – | 12 | 554 | 996 | <1 | 1.6 | –
CC(CO)n1cc(C(=O)c2cncc(NC(=O)Cn3cc(C(F)(F)F)nn3)c2)c2cnc(N)nc21 (single isomer, unassigned) [Example 45, N-(5-{[2-amino-7-(2-hydroxy-1-methylethyl)-7H-pyrrolo[2,3-d]pyrimidin-5-yl]carbonyl}pyridin-3-yl)-2-[4-(trifluoromethyl)-1H-1,2,3-triazol-1-yl]acetamide] | – | – | 25 | 3790 | > 8660 | <1 | <1 | –
C[C@H](CO)n1cc(C(=O)c2cncc(NC(=O)Cn3cc(C4CC4)nn3)c2)c2cncnc21 [Example 18, 2-(4-cyclopropyl-1H-1,2,3-triazol-1-yl)-N-[5-({7-[(1R)-2-hydroxy-1-methylethyl]-7H-pyrrolo[2,3-d]pyrimidin-5-yl}carbonyl)pyridin-3-yl]acetamide] | < 1 | < 1 | 128 | 5300 | > 8660 | – | – | –
C[C@H](CO)n1cc(C(=O)c2cncc(NC(=O)Cc3ccc(Cl)cn3)c2)c2cncnc21 [Example 23, 2-(5-chloropyridin-2-yl)-N-[5-({7-[(1R)-2-hydroxy-1-methylethyl]-7H-pyrrolo[2,3-d]pyrimidin-5-yl}carbonyl)pyridin-3-yl]acetamide] | 31 | < 1 | 26 | 52 | 93 | – | – | –
CC(CO)n1cc(C(=O)c2cncc(NC(=O)Cc3ccc(Cl)cn3)c2)c2cnc(N)nc21 (single isomer, unassigned) [Example 41, N-(5-{[2-amino-7-(2-hydroxy-1-methylethyl)-7H-pyrrolo[2,3-d]pyrimidin-5-yl]carbonyl}pyridin-3-yl)-2-(5-chloropyridin-2-yl)acetamide] | – | – | 7.6 | 70 | 203 | <1 | 6.3 | –
CC(CO)n1cc(C(=O)c2cncc(NC(=O)Cn3ccc(C(F)(F)F)n3)c2)c2cnc(N)nc21 (single isomer, unassigned) [Example 38, N-(5-{[2-amino-7-(2-hydroxy-1-methylethyl)-7H-pyrrolo[2,3-d]pyrimidin-5-yl]carbonyl}pyridin-3-yl)-2-[3-(trifluoromethyl)-1H-pyrazol-1-yl]acetamide] | 2.1 | < 1 | 7.2 | 589 | 1060 | – | – | –
CC(CO)(CO)n1cc(C(=O)c2cncc(NC(=O)c3ccc(C(F)(F)F)c(F)c3)c2)c2cncnc21 [Example 265, N-(5-(7-(1,3-dihydroxy-2-methylpropan-2-yl)-7H-pyrrolo[2,3-d]pyrimidine-5-carbonyl)pyridin-3-yl)-3-fluoro-4-(trifluoromethyl)benzamide] | – | – | – | – | – | – | – | 69
CC(C)n1cc(C(=O)c2cncc(NC(=O)c3cc4n(n3)CCC4)c2)c2cncnc21 [Example 458, 5,6-Dihydro-4H-pyrrolo[1,2-b]pyrazole-2-carboxylic acid [5-(7-isopropyl-7H-pyrrolo[2,3-d]pyrimidine-5-carbonyl)-pyridin-3-yl]-amide] | – | – | – | – | – | – | – | 213
CC(C)n1cc(C(=O)c2cncc(NC(=O)c3cc(C#N)ccn3)c2)c2cncnc21 [Example 480, 4-Cyano-pyridine-2-carboxylic acid [5-(7-isopropyl-7H-pyrrolo[2,3-d]pyrimidine-5-carbonyl)-pyridin-3-yl]-amide] | – | – | – | – | – | – | – | 531
